How the values were obtained:
[1] = Selectivity index, ratio of CC50 for Cytotoxicity against Swiss mouse peritoneal macrophages to EC50 for intracellular Leishmania infantum MHOM/MA(BE)/67 ITMAP263 amastigotes infected in Swiss mouse peritoneal macrophages; assay type: toxicity, cell-based; conditions: read-out: Ratio CC50/EC50
[2] = Cytotoxicity against Swiss mouse peritoneal macrophages assessed as reduction in cell viability measured after 5 days by microscopic analysis; assay type: toxicity, cell-based, Peritoneal macrophage; conditions: time 5 day
Leishmania infantum = assay: Antileishmanial activity against intracellular Leishmania infantum MHOM/MA(BE)/67 ITMAP263 amastigotes infected in Swiss mouse peritoneal macrophage assessed as inhibition of parasite growth measured after 5 days by geimsa staining based microscopic analysis; assay type: functional, organism-based; conditions: MHOM/MA(BE)/67 ITMAP263, Peritoneal macrophage, 120 h
[3] = Cytotoxicity against human MRC5 cells assessed as reduction in cell viability incubated for 3 days by resazurin dye based fluorescence analysis; assay type: toxicity; conditions: time 3 day
[4] = Selectivity index, ratio of CC50 for cytotoxicity against human MRC5 cells to EC50 for Trypanosoma cruzi Tulahuen CL2 amastigotes expressing beta galactosidase infected in human MRC5 cells; assay type: toxicity, cell-based; conditions: read-out: Ratio CC50/EC50
Trypanosoma cruzi = assay: Antitrypanosomal activity against nifurtimox-sensitive Tulahuen CL2 amastigotes expressing beta galactosidase infected in human MRC5 cells assessed as inhibition of parasite growth using chlorophenol red beta-D-galactopyranoside as substrate and measured after 7 days by spectrophotometric analysis; assay type: functional, organism-based; conditions: Tulahuen CL2, MRC5, 168 h

| SMILES | selectivity ratio [1] | CC50 at 120 h [2] [µM] | EC50 (Leishmania infantum) [µM] | CC50 at 72 h [3] [µM] | selectivity ratio [4] | EC50 (Trypanosoma cruzi; read-out: EC50) [µM] | EC50 (Trypanosoma cruzi) [µM] |
| --- | --- | --- | --- | --- | --- | --- | --- |
| Cc1ncnc2c1c(-c1cccs1)cn2[C@@H]1O[C@H](CO)[C@@H](O)[C@H]1O | 2.5 | 32 | 12.7 |  |  |  |  |
| Cc1ncnc2c1c(-c1ccc(Cl)cn1)cn2[C@@H]1O[C@H](CO)[C@@H](O)[C@H]1O | > 160 | > 64 | 0.4 | 26.3 | 53 | 0.49 |  |
| Cc1ncnc2c1c(-c1ccc(S(C)(=O)=O)cc1)cn2[C@@H]1O[C@H](CO)[C@@H](O)[C@H]1O | > 9.5 | > 64 | 6.7 |  |  |  |  |
| COc1ccnc(-c2cn([C@@H]3O[C@H](CO)[C@@H](O)[C@H]3O)c3ncnc(C)c23)c1 |  | > 64 | > 64 | > 64 |  |  |  |
| Cc1ncnc2c1c(C1=CCOCC1)cn2[C@@H]1O[C@H](CO)[C@@H](O)[C@H]1O |  | > 64 | 24.5 |  |  |  |  |
| COc1ccccc1-c1cn([C@@H]2O[C@H](CO)[C@@H](O)[C@H]2O)c2ncnc(C)c12 | > 3 | > 64 | 21.1 | > 64 |  |  |  |
| Cc1ncnc2c1c(Sc1ccccc1)cn2[C@@H]1O[C@H](CO)[C@@H](O)[C@H]1O |  | > 64 | > 64 | > 64 |  |  |  |
| COc1cc(-c2cn([C@@H]3O[C@H](CO)[C@@H](O)[C@H]3O)c3ncnc(C)c23)ccc1Cl | > 7.3 | > 64 | 8.76 |  |  |  |  |
| Cc1ncnc2c1c(-c1cc3ccccc3[nH]1)cn2[C@@H]1O[C@H](CO)[C@@H](O)[C@H]1O | > 36 | > 64 | 1.7 | 14.8 | 24 | 0.62 |  |
| Cc1ncnc2c1c(-c1ccccc1F)cn2[C@@H]1O[C@H](CO)[C@@H](O)[C@H]1O |  | > 64 | > 64 | > 64 |  |  |  |
| Cc1ncnc2c1c(-c1cncnc1)cn2[C@@H]1O[C@H](CO)[C@@H](O)[C@H]1O | > 9.9 | > 64 | 6.5 | > 64 | > 8.8 | 7.3 |  |
| Cc1ncnc2c1c(-c1ccc(Cl)nc1)cn2[C@@H]1O[C@H](CO)[C@@H](O)[C@H]1O |  | > 64 | > 64 | > 64 |  |  |  |
| Cc1ncnc2c1c(CCc1ccccn1)cn2[C@@H]1O[C@H](CO)[C@@H](O)[C@H]1O |  | > 64 | > 64 | > 64 |  |  |  |
| Cc1ncnc2c1c(-c1ccc(Cl)cc1)cn2[C@@H]1O[C@H](CO)[C@@H](O)[C@H]1O | > 3.5 | > 64 | 16.1 |  |  |  |  |
| Cc1ncnc2c1c(-c1nccs1)cn2[C@@H]1O[C@H](CO)[C@@H](O)[C@H]1O | 15.5 | 32 | 2.07 | 6.06 | 9.2 | 0.66 |  |
| Cc1ncnc2c1c(-c1ccsc1)cn2[C@@H]1O[C@H](CO)[C@@H](O)[C@H]1O |  | > 64 | > 64 | > 64 |  |  |  |
| Cc1ncnc2c1c(-c1ccccc1N)cn2[C@@H]1O[C@H](CO)[C@@H](O)[C@H]1O |  | > 64 | > 64 | > 64 |  |  |  |
| Cc1ncnc2c1c(-c1cccc3ccn(C)c13)cn2[C@@H]1O[C@H](CO)[C@@H](O)[C@H]1O |  | > 64 | > 64 | > 64 |  |  |  |
| Cc1ncnc2c1c(-c1cccc(F)n1)cn2[C@@H]1O[C@H](CO)[C@@H](O)[C@H]1O |  | > 64 | > 64 | > 64 |  |  |  |
| Cc1ncnc2c1c(-c1cnccn1)cn2[C@@H]1O[C@H](CO)[C@@H](O)[C@H]1O | > 6.3 | > 64 | 10.1 | > 64 |  |  |  |
| Cc1ncnc2c1c(-c1cccnc1)cn2[C@@H]1O[C@H](CO)[C@@H](O)[C@H]1O | > 2.8 | > 64 | 22.6 | > 64 |  |  |  |
| Cc1ncnc2c1c(-c1ccoc1)cn2[C@@H]1O[C@H](CO)[C@@H](O)[C@H]1O |  | > 64 | > 64 | > 64 |  |  |  |

| SMILES | selectivity ratio [1] | CC50 at 120 h [2] [µM] | EC50 (Leishmania infantum) [µM] | CC50 at 72 h [3] [µM] | selectivity ratio [4] | EC50 (Trypanosoma cruzi; read-out: EC50) [µM] | EC50 (Trypanosoma cruzi) [µM] |
| --- | --- | --- | --- | --- | --- | --- | --- |
| Cc1ncnc2c1c(-c1cnn(C)c1)cn2[C@@H]1O[C@H](CO)[C@@H](O)[C@H]1O | > 8 | > 64 | 8 | > 64 |  |  |  |
| Oc1ncnc2[nH]ncc12 [ALLOPURINOL] | > 18 | > 64 | 3.5 | > 64 |  |  |  |
| Cc1ncnc2c1c(-c1cccc3c1oc1ccccc13)cn2[C@@H]1O[C@H](CO)[C@@H](O)[C@H]1O | > 1.2 | > 64 | 50.8 | 12.7 |  |  |  |
| Cc1ncnc2c1c(-c1ccncc1)cn2[C@@H]1O[C@H](CO)[C@@H](O)[C@H]1O |  | > 64 | > 64 | > 64 |  |  |  |
| Cc1ncnc2c1c(-c1ccc3ccccc3n1)cn2[C@@H]1O[C@H](CO)[C@@H](O)[C@H]1O |  | > 64 | > 64 | > 64 |  |  |  |
| Cc1ncnc2c1c(-c1ncccn1)cn2[C@@H]1O[C@H](CO)[C@@H](O)[C@H]1O | > 7.8 | > 64 | 8.2 | > 64 | > 10 | 5.9 |  |
| Cc1ncnc2c1c(-c1cccc3cccnc13)cn2[C@@H]1O[C@H](CO)[C@@H](O)[C@H]1O | > 17 | > 64 | 3.7 | > 64 | > 6.7 | 9.6 |  |
| Cc1ncnc2c1c(-c1cc[nH]n1)cn2[C@@H]1O[C@H](CO)[C@@H](O)[C@H]1O | > 8 | > 64 | 8 | 27.9 |  |  |  |
| Cc1ncnc2c1c(-c1ccccc1Cl)cn2[C@@H]1O[C@H](CO)[C@@H](O)[C@H]1O | > 3.1 | > 64 | 20.4 | > 64 |  |  |  |
| Cc1ncnc2c1c(/C=C/c1ccccn1)cn2[C@@H]1O[C@H](CO)[C@@H](O)[C@H]1O | > 3.37 | > 64 | 19 | > 64 |  |  |  |
| O=C(Cn1ccnc1[N+](=O)[O-])NCc1ccccc1 [BENZNIDAZOLE] |  |  |  |  |  |  | 2.28 |
| Cc1ncnc2c1c(-c1ccc(N)cc1)cn2[C@@H]1O[C@H](CO)[C@@H](O)[C@H]1O | > 9.5 | > 64 | 6.7 |  |  |  |  |
| Cc1ncnc2c1c(-c1ccc[nH]1)cn2[C@@H]1O[C@H](CO)[C@@H](O)[C@H]1O | 91.4 | 32 | 0.35 | 12.9 | 19 | 0.68 |  |
| Cc1ncnc2c1c(-c1ccccn1)cn2[C@@H]1O[C@H](CO)[C@@H](O)[C@H]1O | > 27 | > 64 | 2.3 | > 64 | > 39 | 1.6 |  |
| Cc1ncnc2c1c(-c1cccc3c1N=CC3)cn2[C@@H]1O[C@H](CO)[C@@H](O)[C@H]1O | > 30 | > 64 | 2.1 | > 64 | > 19 | 3.3 |  |
| Cc1ncnc2c1c(-c1ccc(Cl)c(F)c1)cn2[C@@H]1O[C@H](CO)[C@@H](O)[C@H]1O | > 8 | > 64 | 7.9 |  |  |  |  |
| Cc1ncnc2c1c(-c1ccc(C(F)(F)F)cc1)cn2[C@@H]1O[C@H](CO)[C@@H](O)[C@H]1O | > 5.6 | > 64 | 11.3 |  |  |  |  |
| Cc1ncnc2c1c(-c1cccc(Cl)n1)cn2[C@@H]1O[C@H](CO)[C@@H](O)[C@H]1O | > 4.51 | > 64 | 14.2 | > 64 |  |  |  |
| Cc1ncnc2c1c(-c1cc3ccccc3cn1)cn2[C@@H]1O[C@H](CO)[C@@H](O)[C@H]1O |  | > 64 | > 64 | > 64 |  |  |  |
| CSc1ccccc1-c1cn([C@@H]2O[C@H](CO)[C@@H](O)[C@H]2O)c2ncnc(C)c12 |  | > 64 | > 64 | > 64 |  |  |  |
| Cc1ncnc2c1c(-c1cc3ccccc3o1)cn2[C@@H]1O[C@H](CO)[C@@H](O)[C@H]1O | 1.58 | 32 | 20.3 | 45.8 |  |  |  |
| Cc1ncnc2c1c(-c1ccccc1[N+](=O)[O-])cn2[C@@H]1O[C@H](CO)[C@@H](O)[C@H]1O |  | > 64 | > 64 | > 64 |  |  |  |

From ChEMBL document CHEMBL5120865, “Exploration of 6-methyl-7-(Hetero)Aryl-7-Deazapurine ribonucleosides as antileishmanial agents” (Eur J Med Chem, 2022)
